# ChEMBL document CHEMBL1124964, “Synthesis, structure, and antiparasitic activity of sulfamoyl derivatives of ribavirin” (1990)
# Where “and” joins values, the source holds several entries; their conditions need not be identical. Equal values may be shown once.
# Columns and labels:
# Format in all cases: functional
# [1] = system: Mus musculus; assay: In vivo antiparasitic activity against Trypanosoma brucei was tested at […]. Percent of mice cured after oral administration
# [2] = system: Mus musculus; assay: In vivo antiparasitic activity against Trypanosoma brucei was tested at 25 mg/kg. Average survival time of the mice was determined
# [3] = system: Mus musculus; assay: In vivo antiparasitic activity against Trypanosoma brucei was tested at […]. Range of survival of mice.
# [4] = system: Trypanosoma brucei; assay: In vivo antiparasitic activity against Trypanosoma brucei was tested at 50 mg/kg. Range of survival of mice; 10-4
# [5] = system: Giardia intestinalis; assay: In vitro antiparasitic activity against Giardia lamblia was determined; conditions: Giardia duodenalis; read-out: ED50 (the source's name)
# [6] = system: Trypanosoma brucei; assay: In vivo antiparasitic activity against Trypanosoma brucei was tested at 10 mg/kg. Range of survival of mice; 4-11
# [7] = system: Trypanosoma brucei; assay: In vivo antiparasitic activity against Trypanosoma brucei was tested at 1 mg/kg Percent of mice cured after oral administration
# [8] = system: Trypanosoma brucei gambiense; assay: In vitro antiparasitic activity against Trypanosoma gambiense was determined; conditions: read-out: ED50 (the source's name)
# [9] = system: Trypanosoma brucei; assay: In vivo antiparasitic activity against Trypanosoma brucei was tested at 50 mg/kg. Percent of mice cured after administering the compound.
# [10] = system: Trypanosoma cruzi; assay: In vitro antiparasitic activity against Trypanosoma cruzi was determined; conditions: read-out: ED50 (the source's name)
# [11] = system: Leishmania donovani; assay: In vitro antiparasitic activity against Leishmania donovani was determined; conditions: read-out: ED50 (the source's name)
# [12] = system: Trypanosoma brucei; assay: In vivo antiparasitic activity against Trypanosoma brucei was tested. Average survival time of the mice taken in this experiment.
# [13] = system: Trypanosoma brucei; assay: In vivo antiparasitic activity against Trypanosoma brucei was tested at 50 mg/kg (p.o.). Average survival time of the mice taken in this experiment.; conditions: route oral
# [14] = system: Trypanosoma brucei; assay: In vivo antiparasitic activity against Trypanosoma brucei was tested at 20 mg/kg. Percent of mice cured after administering the compound.
# [15] = system: Trypanosoma brucei; assay: In vivo antiparasitic activity against Trypanosoma brucei was tested at 5 mg/kg. Percent of mice cured after administering the compound.
# [16] = system: Trypanosoma brucei; assay: In vivo antiparasitic activity against Trypanosoma brucei was tested. Percent of mice cured after administering the compound.
# [17] = system: Trypanosoma brucei; assay: In vivo antiparasitic activity against Trypanosoma brucei was tested at 50 mg/kg (i.v.).. Percent of mice cured after administering the compound.; conditions: route intravenous
# [18] = system: Trypanosoma brucei; assay: In vivo antiparasitic activity against Trypanosoma brucei was tested at 20 mg/kg. Range of survival of mice; 4-11
# [19] = system: Trypanosoma brucei; assay: In vivo antiparasitic activity against Trypanosoma brucei was tested at 1 mg/kg. Average survival time of the mice was determined
# [20] = system: Trypanosoma brucei; assay: In vivo antiparasitic activity against Trypanosoma brucei was tested. Range of survival of mice.
# [21] = system: Leishmania donovani; assay: % Suppression = 100 - 100(LDUs of experimental / LDUs of control) at
# [22] = system: Leishmania donovani; assay: % Suppression = 100 - 100(LDUs of experimental / LDUs of control).
# [23] = system: Trypanosoma brucei; assay: In vivo antiparasitic activity against Trypanosoma brucei was tested at 50 mg/kg (p.o.). Percent of mice cured after administering the compound.; conditions: route oral
# [24] = system: Trypanosoma brucei; assay: In vivo antiparasitic activity against Trypanosoma brucei was tested at 50 mg/kg (i.v.). Range of survival of mice; 4-12; conditions: route intravenous
# [25] = organism: Mus musculus; assay: LDUs (Leishmania Donovan Units) in liver The liver parasite burden expressed as Leishmania Donovanii units
# [26] = system: Trypanosoma brucei; assay: In vivo antiparasitic activity against Trypanosoma brucei was tested at 1 mg/kg. Range of survival of mice; 4-5
# [27] = system: Trypanosoma brucei; assay: In vivo antiparasitic activity against Trypanosoma brucei was tested at 20 mg/kg. Average survival time of the mice taken in this experiment.
# [28] = system: Trypanosoma brucei; assay: In vivo antiparasitic activity against Trypanosoma brucei was tested at 50 mg/kg (p.o.). Range of survival of mice; 10-14; conditions: route oral
# [29] = system: Trypanosoma brucei; assay: In vivo antiparasitic activity against Trypanosoma brucei was tested at 50 mg/kg (i.v.). Average survival time of the mice taken in this experiment.; conditions: route intravenous
# [30] = system: Trypanosoma brucei; assay: In vivo antiparasitic activity against Trypanosoma brucei was tested at 50 mg/kg. Average survival time of the mice taken in this experiment.
# [31] = system: Trypanosoma brucei; assay: In vivo antiparasitic activity against Trypanosoma brucei was tested at 10 mg/kg. Average survival time of the mice taken in this experiment.
# [32] = system: Trypanosoma brucei; assay: In vivo antiparasitic activity against Trypanosoma brucei was tested at 10 mg/kg. Percent of mice cured after administering the compound.
# [33] = organism: Mus musculus; assay: LDUs (Leishmania Donovan Units) in liver The liver parasite burden expressed as Leishmania Donovanii units at
# [34] = system: Trypanosoma brucei; assay: In vivo antiparasitic activity against Trypanosoma brucei was tested at 5 mg/kg. Range of survival of mice; 4-6
# [35] = system: Trichomonas vaginalis; assay: In vitro antiparasitic activity against […] was determined; conditions: read-out: ED50 (the source's name)
# [36] = system: Trypanosoma brucei; assay: In vivo antiparasitic activity against Trypanosoma brucei was tested at 5 mg/kg. Average survival time of the mice taken in this experiment.
# [37] = system: Mus musculus; assay: In vivo LDUs (Leishmania Donovan Units) in liver of mouse at a dose of 50 mg/kg/day
# [38] = system: Leishmania donovani; assay: % […] = 100 - 100(LDUs of experimental / LDUs of control).
# [39] = system: Mus musculus; assay: In vivo LDUs (Leishmania Donovan Units) in liver of mouse at a dose of 10 mg/kg/day
# [40] = system: Mus musculus; assay: In vivo LDUs (Leishmania Donovan Units) in liver of mouse at a dose of 20 mg/kg/day
structure (smiles),measurement,setting,value
O=C1N=CN=C2C1N=CC2[C@@H]1O[C@H](CO)[C@@H](O)[C@H]1O (stereo partly specified),Cured,[1],100%
same,Average survival,[2],35 days
same,Range of survival,[3],35
NC(=O)c1ncn(C2O[C@H](COS(N)(=O)=O)[C@@H](O)[C@H]2O)n1 (stereo partly specified),Range of survival,[4],4
same,EC50,[5],10 µg/mL
same,Range of survival,[6],4
same,Cured,[7],0%
same,EC50,[8],0.01 µg/mL
same,Cured,[9],0%
same,EC50,[10],> 50 µg/mL
same,EC50,[11],0.03 µg/mL
same,Average survival,[12],3.4 days
same,Average survival,[13],11.6 days
same,Cured,[14],0%
same,Cured,[15],0%
same,Cured,[16],0%
same,Cured,[17],0%
same,Range of survival,[18],4
same,Average survival,[19],4.6 days
same,Range of survival,[20],5
same,Suppression,[21],18%
same,Suppression,[22],50% and 67%
same,Cured,[23],0%
same,Range of survival,[24],4
same,Activity,[25],765 and 501
same,Range of survival,[26],4
same,Average survival,[27],7.4 days
same,Range of survival,[28],10
same,Average survival,[29],6.4 days
same,Average survival,[30],6.4 days
same,Average survival,[31],7.4 days
same,Cured,[32],0%
same,Activity,[33],1244
same,Range of survival,[34],4
same,EC50,[35],> 25 µg/mL
same,Average survival,[36],4.8 days
NC(=S)c1ncn(C2O[C@H](COS(N)(=O)=O)[C@@H](O)[C@H]2O)n1 (stereo partly specified),EC50,[5],> 25 µg/mL
same,EC50,[8],0.5 µg/mL
same,EC50,[10],> 50 µg/mL
same,EC50,[11],2.5 µg/mL
same,Activity,[37],1514
same,Suppression,[38],0%
same,Activity,[39],1039
same,Suppression,[22],0%
same,Activity,[40],1143
same,EC50,[35],15 µg/mL
N#Cc1ncn(C2O[C@H](COS(N)(=O)=O)[C@@H](O)[C@H]2O)n1 (stereo partly specified),EC50,[5],> 25 µg/mL
same,EC50,[8],1 µg/mL
same,EC50,[10],> 50 µg/mL
same,EC50,[11],1 µg/mL
same,EC50,[35],> 25 µg/mL
